Data on two substances can be found in publication PMC8509980 (Chinese Medical Journal, 2021).

This assay deals with T1, sineoculis homeobox homolog 1 (SIX1) (Homo sapiens, UniProt Q15475).
T1 sequence (Q15475 1-284): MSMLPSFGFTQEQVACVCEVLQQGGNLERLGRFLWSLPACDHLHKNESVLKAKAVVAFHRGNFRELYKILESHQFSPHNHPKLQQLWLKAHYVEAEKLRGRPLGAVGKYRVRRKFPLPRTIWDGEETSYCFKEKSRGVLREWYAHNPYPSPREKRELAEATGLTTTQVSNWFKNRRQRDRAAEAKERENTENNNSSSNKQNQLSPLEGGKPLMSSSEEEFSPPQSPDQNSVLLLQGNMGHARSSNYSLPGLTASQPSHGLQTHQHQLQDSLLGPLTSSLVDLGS
T1 sequence (Q99502 1-592 partner): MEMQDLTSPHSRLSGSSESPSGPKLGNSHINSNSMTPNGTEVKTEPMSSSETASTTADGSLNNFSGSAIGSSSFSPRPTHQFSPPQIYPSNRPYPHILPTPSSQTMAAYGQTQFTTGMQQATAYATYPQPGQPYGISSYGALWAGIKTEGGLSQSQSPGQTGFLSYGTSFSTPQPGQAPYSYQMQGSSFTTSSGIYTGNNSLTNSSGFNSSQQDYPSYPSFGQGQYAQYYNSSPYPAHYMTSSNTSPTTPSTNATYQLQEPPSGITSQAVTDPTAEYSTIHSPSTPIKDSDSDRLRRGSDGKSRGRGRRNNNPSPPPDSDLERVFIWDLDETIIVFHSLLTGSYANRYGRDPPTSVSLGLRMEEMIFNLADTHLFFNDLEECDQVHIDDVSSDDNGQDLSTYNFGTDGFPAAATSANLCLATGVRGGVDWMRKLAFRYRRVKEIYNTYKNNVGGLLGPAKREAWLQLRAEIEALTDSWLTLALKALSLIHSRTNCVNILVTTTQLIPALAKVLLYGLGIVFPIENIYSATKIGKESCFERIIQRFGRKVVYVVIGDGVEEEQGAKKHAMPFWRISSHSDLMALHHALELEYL
In words: AlphaScreen disruption of purified GST-SIX1/His-EYA1 interaction. It is filed as binding. (In general: Bead proximity is the source of the signal in Alpha formats.)

Regarding NSC0933, the midpoint of inhibition, the IC50, lay at 83.4 ± 7.24 µM.

With NSC0191, the midpoint of inhibition, the IC50, lay at 12.6 ± 1.15 µM.
